Source: patent US20230068456A1, “REAL-TIME MONITORING OF IN VIVO FREE RADICAL SCAVENGERS THROUGH HYPERPOLARIZED N-ACETYL CYSTEINE ISOTOPES” (THE UNITED STATES OF AMERICA, AS REPRESENTED BY THE …, priority 2020, published 2023)

Tests used:
acylase 1 = target: T1, acylase 1 (Homo sapiens, UniProt Q03154); experiment: In vitro enzymatic assay of hyperpolarized NAC incubated with acylase 1 (1T NMR); format: biochemical; conditions: without inhibitor
T1 sequence (Q03154 1-408): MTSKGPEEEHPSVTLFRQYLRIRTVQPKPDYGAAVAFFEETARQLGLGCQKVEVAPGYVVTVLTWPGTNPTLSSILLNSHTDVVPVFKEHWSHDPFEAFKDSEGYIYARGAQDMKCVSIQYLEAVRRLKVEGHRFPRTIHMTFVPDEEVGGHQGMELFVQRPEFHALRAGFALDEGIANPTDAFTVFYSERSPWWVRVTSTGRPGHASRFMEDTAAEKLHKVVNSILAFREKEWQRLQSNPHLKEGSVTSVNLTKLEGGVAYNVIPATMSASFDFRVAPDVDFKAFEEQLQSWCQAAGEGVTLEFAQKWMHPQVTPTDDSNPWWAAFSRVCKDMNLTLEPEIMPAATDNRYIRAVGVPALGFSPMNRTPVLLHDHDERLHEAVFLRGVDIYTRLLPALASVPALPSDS

Hs766t = experiment: In cell dynamic 13C NMR of hyperpolarized [1-13C] NAC at 1T, Hs766t cells; format: cell-based, human
Excerpt: FIG. 2A is a in cell dynamic ^13C NMR spectra of hyperpolarized [1-^13C] NAC at 1T NMR on 20×10^6 cells of human pancreatic tumor cell lines of Hs766t (left) and expanded spectra with 100 times magnifications at 2 seconds after the hyperpolarized [1-^13C] NAC injections in Hs766t (right);
(§1) In an embodiment, a cell dynamic ^13C NMR spectra of hyperpolarized [1-^13C] NAC at 1T NMR spectrometer on human pancreatic ductal adenocarcinoma (PDAC) cell lines, which have one of the worst prognosises among common cancers and need effective diagnostic approaches, Hs766t (FIG. 2A) and SU.86.86 (FIG. 2B), in both cases, the cell dynamic ^13C-nuclear magnetic resonance (NMR) spectra of the hyperpolarized [1-^13C] […]
(§2) All of the animal experiments were conducted in compliance with the Guide for the Care and Use of Laboratory Animal Resources, and experimental protocols were approved by the Animal Care and Use Committee, National Cancer Institute (NCI-CCR-ACUC) (National Research Council, Committee for the Update of the Guide for the Care and Use of Laboratory Animals. Guide for the care and use of laboratory animals. Washington, D.C.: Institute of Laboratory Animal Resources 2011). […] Both respiration (60-90 breaths per min) and temperature (35-37° C.) were maintained at a normal physiological range and monitored continuously during the animal experiment using the adjusted anesthesia.

SU.86.86 = experiment: In cell dynamic 13C NMR of hyperpolarized [1-13C] NAC at 1T, SU.86.86 cells; format: cell-based, human
Excerpt: FIG. 2B is a in cell dynamic ^13C NMR spectra of hyperpolarized [1-^13C] NAC at 1T NMR on 20×10^6 cells of human pancreatic tumor cell lines of SU.86.86 (left) and expanded spectra with 100 times magnifications at 2 seconds after the hyperpolarized [1-^13C] NAC injections in SU.86.86 (right);
as §1, §2

Hs766t tumor xenografts = experiment: Dynamic 13C MR spectra and CSI of hyperpolarized [1-13C] NAC at 3T MRI, Hs766t tumor xenografts; format: in vivo, mouse
Procedure: (§3) All of the animal experiments were conducted in compliance with the Guide for the Care and Use of Laboratory Animal Resources, and experimental protocols were approved by the Animal Care and Use Committee, National Cancer Institute (NCI-CCR-ACUC) (National Research Council, Committee for the Update of the Guide for the Care and Use of Laboratory Animals. Guide for the care and use of laboratory animals. Washington, D.C.: Institute of Laboratory Animal Resources 2011). The human pancreatic ductal adenocarcinoma (PDAC) cell lines, […], and SU.86.86 cells, were purchased from Threshold Pharmaceuticals (Redwood City, Calif.). Human pancreatic tumor inoculated mice were generated by subcutaneous injection of 3×10^5 cells into the right hind legs of mice. Detailed conditions for cell culture and xenograft tumor development were as described previously in K. Yamamoto, J. R. Brender, T. Seki, S. Kishimoto, N. Oshima, R. Choudhuri, S. S. Adler, E. M. Jagoda, K. Saito, N. Devasahayam, P. L. Choyke, J. B. Mitchell, and M. C. Krishna, Cancer Res 2020, 80, 2087-2093, which is incorporated herein in its entirety by reference. […] Both respiration (60-90 breaths per min) and temperature (35-37° C.) were maintained at a normal physiological range and monitored continuously during the animal experiment using the adjusted anesthesia. […]

[1] = tested on: SU.86.86 tumor xenografts; experiment: Dynamic 13C MR spectra of hyperpolarized [1-13C] NAC at 3T MRI, SU.86.86 tumor xenografts; format: in vivo; conditions: SU.86.86 mouse leg xenograft, iv, FIGS. 4B, 4C
Procedure: as §3

[2] = Hyperpolarized 13C chemical shift imaging (CSI) in healthy mouse body and head after iv injection

## CC(=O)N[C@@H](CS)[13C](=O)O [[1-^13C] NAC, [1-^13C] N-acetyl cysteine]
Acylase 1
  enzymatic conversion by acylase 1: immediate production of cysteine
Hs766t; Hs766t, 20×10^6 cells, FIG. 2C
  NAC-GSH formation in cell culture: can produce NAC-glutathione (NAC-GSH)
Hs766t; PDAC cell cultures (Hs766t and SU.86.86), suggested by the rapid kinetics of NAC-GSH formation
  cell membrane permeation: may permeabilize through cell membranes without active transport
SU.86.86; SU.86.86 compared with Hs766t
  NAC-GSH concentrations: Lower concentrations NAC-GSH
SU.86.86; SU.86.86, 20×10^6 cells, FIG. 2C
  NAC-GSH formation in cell culture: can produce NAC-glutathione (NAC-GSH)
Hs766t tumor xenografts; Hs766t compared with SU.86.86 tumors, FIGS. 4C and 4D
  amount of NAC-GSH formed: higher in Hs766t than in SU.86.86 tumors
Hs766t tumor xenografts; Hs766t mouse leg xenograft, iv, FIGS. 4A, 4C
  NAC-GSH formation in tumor: rapidly formed
[1]
  NAC-GSH formation in tumor: rapidly formed
[2]; healthy mouse, iv tail vein cannula, 13C CSI
  time to global distribution throughout the mouse body after injection: ≤ 30 s
[2]; healthy mouse, iv, 13C CSI, FIG. 6A
  tissue distribution: lung region signal: lower signal
[2]; normal mice, in vivo, no imposed oxidative stress
  metabolites in the liver and kidney regions: not observed
